Measured values from patent publication US20170334899A1, “AMINO-SUBSTITUTED ISOTHIAZOLES” (Bayer Pharma Aktiengesellschaft, priority 2014, published 2017).

Assays:
[1] = system: human cervical tumor cell line HeLa (ATCC CCL-2); assay: SAC-Formation - Nocodazole-Induced Assay; type: cell-based; details: Homo sapiens, HeLa, 24 h, HeLa cells, nocodazole 0.1 μg/ml together with test compound, decrease of mitotic cells (phospho-histone H3 Ser10)
Outline: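 Loss of phospho-histone H3 Ser10-positive cells, counted against Hoechst-stained nuclei by high-content imaging, marked mitotic breakthrough. Compounds (0.005–20 μM, 0.5% DMSO) were co-dosed with 0.1 μg/ml nocodazole onto HeLa cells for 24 h at 37 °C. Curves were fitted with a four-parameter Hill equation.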

[2] = system: human cervical tumor cell line HeLa (ATCC CCL-2); assay: SAC-Formation - Paclitaxel-Induced Assay; type: cell-based; details: 24 h, HeLa cells, paclitaxel 0.05 μM, test range 0.005 μM-20 μM, read-out: IC50 [mol/l] SAC-Formation - Paclitaxel-Induced Assay
Outline: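 Read-out is high-content imaging of anti-phospho-H3 Ser10 (mitosis) and Hoechst 33342 (DNA, cell number), with decreased mitotic fraction marking checkpoint breakthrough. Compounds (0.005–20 μM) and 0.05 μM paclitaxel co-added to overnight-plated HeLa for 24 h at 37° C; four-parameter Hill fit.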

Row | IC50 [1] [µM] | IC50 ([2]; Homo sapiens, HeLa) [µM] | IC50 [2] [µM] | SMILES
1 | 0.028 | 0.056 | – | Cc1nsc(Nc2cnc(C(F)(F)F)cn2)c1C(=O)Nc1ccc(F)c(OC[C@H]2CCN(CC(F)(F)F)C2)c1 [Example 398, N-(4-fluoro-3-{[(3S)-1-(2,2,2-trifluoroethyl)pyrrolidin-3-yl]methoxy}phenyl)-3-methyl-5-{[5-(trifluoromethyl)pyrazin-2-yl]amino}-1,2-thiazole-4-carboxamide]
2 | 0.18 | 0.3 | – | Cc1nsc(Nc2cnc(C(F)(F)F)cn2)c1C(=O)Nc1ccc(O[C@@H]2CCCN(CC(F)F)C2)nc1 [Example 385, N-(6-{[(3R)-1-(2,2-difluoroethyl)piperidin-3-yl]oxy}pyridin-3-yl)-3-methyl-5-{[5-(trifluoromethyl)pyrazin-2-yl]amino}-1,2-thiazole-4-carboxamide]
3 | 0.28 | 0.99 | – | Cc1nsc(Nc2cc(C#N)ccn2)c1C(=O)Nc1ccc(OC2CCCN(C(=O)OC(C)(C)C)C2)nc1 (stereo not drawn) [Example 34, tert-Butyl 3({5-[({5-[(4-cyanopyridin-2-yl)amino]-3-methyl-1,2-thiazol-4-yl}-carbonyl)amino]pyridin-2-yl}oxy)piperidine-1-carboxylate]
4 | 0.037 | 0.08 | – | Cc1nsc(Nc2cnc(C(F)(F)F)cn2)c1C(=O)Nc1ccc(O[C@H]2CCCN(CC(F)F)C2)nc1 [Example 388, N-(6-{[(3S)-1-(2,2-difluoroethyl)piperidin-3-yl]oxy}pyridin-3-yl)-3-methyl-5-{[5-(trifluoromethyl)pyrazin-2-yl]amino}-1,2-thiazole-4-carboxamide]
5 | 4 | 11 | – | Cc1nsc(Nc2cnc3ccccc3n2)c1C(=O)Nc1ccc(OC2CCCNC2)nc1 (stereo not drawn) [Example 32, 3-Methyl-N-[6-(piperidin-3-yloxy)pyridin-3-yl]-5-(quinoxalin-2-ylamino)-1,2-thiazole-4-carboxannide]
6 | 0.04 | 0.2 | – | Cc1nsc(Nc2cnc(C(F)(F)F)cn2)c1C(=O)Nc1ccc(OC[C@@H]2CCCN(CC(F)F)C2)nc1 [Example 375, N-(6-{[(3R)-1-(2,2-difluoroethyl)piperidin-3-yl]methoxy}pyridin-3-yl)-3-methyl-5-{[5-(trifluoromethyl)pyrazin-2-yl]amino}-1,2-thiazole-4-carboxamide]
7 | 0.047 | 0.056 | – | Cc1nsc(Nc2cnc(C(F)(F)F)cn2)c1C(=O)Nc1ccc(F)c(OCC2CCCN(CC(F)F)C2)c1 (stereo not drawn) [Example 334, N-(3-{[1-(2,2-difluoroethyl)piperidin-3-yl]methoxy}-4-fluorophenyl)-3-methyl-5-{[5-(trifluoromethyl)pyrazin-2-yl]amino}-1,2-thiazole-4-carboxamide]
8 | 16 | 20 | – | Cc1nsc(Nc2ccc(C#N)cn2)c1C(=O)Nc1ccc(OC2CCN(CCF)CC2)nc1 [Example 29, 5-[(5-Cyanopyridin-2-yl)amino]-N-(6-{[1-(2-fluoroethyl)piperidin-4-yl]oxy}pyridin-3-yl)-3-methyl-1,2-thiazole-4-carboxamide]
9 | 0.035 | 0.18 | – | Cc1nsc(Nc2cnc(C(F)(F)F)cn2)c1C(=O)Nc1ccc(OC2CCCN(CCF)C2)nc1 (stereo not drawn) [Example 329, N-(6-{[1-(2-fluoroethyl)piperidin-3-yl]oxy}pyridin-3-yl)-3-methyl-5-{[5-(trifluoromethyl)pyrazin-2-yl]amino}-1,2-thiazole-4-carboxamide]
10 | 0.072 | 0.11 | – | Cc1nsc(Nc2cnc(C(F)(F)F)cn2)c1C(=O)Nc1ccc(F)c(OC[C@@H]2CCCN(CC(F)(F)F)C2)c1 [Example 342, N-(4-fluoro-3-{[(3R)-1-(2,2,2-trifluoroethyl)piperidin-3-yl]methoxy}phenyl)-3-methyl-5-{[5-(trifluoromethyl)pyrazin-2-yl]amino}-1,2-thiazole-4-carboxamide]
11 | 0.31 | 0.52 | – | Cc1nsc(Nc2cnc(C(F)(F)F)cn2)c1C(=O)Nc1ccc(OCCN(C)CCF)nc1 [Example 348, N-(6-{2-[(2-fluoroethyl)(methyl)amino]ethoxy}pyridin-3-yl)-3-methyl-5-{[5-(trifluoromethyl)pyrazin-2-yl]amino}-1,2-thiazole-4-carboxamide]
12 | 0.044 | 0.099 | – | Cc1nsc(Nc2cnc(C(F)(F)F)cn2)c1C(=O)Nc1ccc(C2CCN(CC(F)F)CC2)nc1 [Example 357, N-{6-[1-(2,2-difluoroethyl)piperidin-4 yl]pyridin-3-yl}-3-methyl-5-{[5-(trifluoromethyl)pyrazin-2-yl]amino}-1,2-thiazole-4-carboxamide]
13 | 0.022 | 0.031 | – | CCCN1CC[C@H](Oc2ccc(NC(=O)c3c(C)nsc3Nc3cnc(C(F)(F)F)cn3)cn2)[C@@H](F)C1 [Example 370, N-(6-{[(3S,4S)-3-fluoro-1-propylpiperidin-4-yl]oxy}pyridin-3-yl)-3-methyl-5-{[5-(trifluoromethyl)pyrazin-2-yl]amino}-1,2-thiazole-4-carboxamide]
14 | 0.027 | 0.037 | – | Cc1nsc(Nc2cnc(C(F)(F)F)cn2)c1C(=O)Nc1ccc(F)c(OC[C@@H]2CCCN(CC(F)F)C2)c1 [Example 341, N-(3-{[(3R)-1-(2,2-difluoroethyl)piperidin-3-yl]methoxy}-4-fluorophenyl)-3-methyl-5-{[5-(trifluoromethyl)pyrazin-2-yl]amino}-1,2-thiazole-4-carboxamide]
15 | 0.014 | 0.018 | – | CCCCN1CCC(COc2ccc(NC(=O)c3c(C)nsc3Nc3cnc(C(F)(F)F)cn3)cn2)C(F)(F)C1 (stereo not drawn) [Example 396, N-{6-[(1-butyl-3,3-difluoropiperidin-4-yl)methoxy]pyridin-3-yl}-3-methyl-5-{[5-(trifluoromethyl)pyrazin-2-yl]amino}-1,2-thiazole-4-carboxamide]
16 | 0.035 | 0.035 | 0.027 | Cc1nsc(Nc2cnc(C(F)(F)F)cn2)c1C(=O)Nc1ccc(F)c(OC[C@@H]2CCCN(CCC(F)(F)F)C2)c1 [Example 395, N-(4-fluoro-3-{[(3R)-1-(3,3,3-trifluoropropyl)piperidin-3-yl]methoxy}phenyl)-3-methyl-5-{[5-(trifluoromethyl)pyrazin-2-yl]amino}-1,2-thiazole-4-carboxamide]
17 | 0.0056 | 2.3 | – | Cc1nsc(Nc2cnc(C(F)(F)F)cn2)c1C(=O)Nc1ccc(OCC2CCCN(CC(F)(F)F)C2)nc1 (stereo not drawn) [Example 326, 3-methyl-N-(6-{[1-(2,2,2-trifluoroethyl)piperidin-3-yl]methoxy}pyridin-3-yl)-5-{[5-(trifluoromethyl)pyrazin-2-yl]amino}-1,2-thiazole-4-carboxamide]
18 | 0.068 | 0.12 | – | Cc1nsc(Nc2cnc(C(F)(F)F)cn2)c1C(=O)Nc1ccc(N2CCN(CCC(F)(F)F)CC2)nc1 [Example 361, 3-methyl-5-{[5-(trifluoromethyl)pyrazin-2-yl]amino}-N-{6-[4-(3,3,3-trifluoropropyl)piperazin-1-yl]pyridin-3-yl}-1,2-thiazole-4-carboxamide]
19 | 0.21 | 0.21 | – | Cc1nsc(Nc2cncc(C(F)(F)F)n2)c1C(=O)Nc1ccc(F)c(OC2CCN(CCC(F)(F)F)CC2)c1 [Example 343, N-(4-fluoro-3-{[1-(3,3,3-trifluoropropyl)piperidin-4-yl]oxy}phenyl)-3-methyl-5-{[6-(trifluoromethyl)pyrazin-2-yl]amino}-1,2-thiazole-4-carboxamide]
